According to patent US4554367A, “Phosphonium organohalogenostannates-IV” (priority 1982, dated 1985):

Test system: Aureobasidium pullans
Assay: Growth on wood
Details: 28° C., 4 weeks
Description: Small wooden blocks of spruce, 7×10×10 mm in size, are dried under a vacuum for 30 minutes. The small blocks are then subjected to impregnation under a vacuum, by being left in 20 ml of distilled water and the biocide under vacuum for 30 minutes, and are then exposed to pressure treatment (2 atmospheres gauge by compressed air) in water for 18 hours. The pieces of wood thus treated are either immediately dried or first subjected to bleaching in running water and then dried.
The small dried pieces of wood are placed on potato glucose agar and the wood and surrounding agar are innoculated with 0.1 ml of a spore suspension of Aureobasidium pullans. After incubation at 28° C. for 4 weeks, the growth is evaluated according to the following plan.
4=No growth on the wood, inhibitory zone up to 2 mm
5=No growth on the wood, inhibitory zone greater than 2 mm

Compound: OC[P+](CO)(CO)CO.[Cl][Sn-]([Cl])([CH]1CCCCC1)([CH]1CCCCC1)[CH]1CCCCC1 [Example 26]
- Growth on wood, leached for 5 days (0.01% in H2O): 4 (No growth on the wood, inhibitory zone up to 2 mm)
- Growth on wood, not leached (0.01% in H2O): 5 (No growth on the wood, inhibitory zone greater than 2 mm)
- Growth on wood, leached for 5 days (0.05% in H2O): 5 (No growth on the wood, inhibitory zone greater than 2 mm)
- Growth on wood, not leached (0.05% in H2O): 5 (No growth on the wood, inhibitory zone greater than 2 mm)
